According to patent US8871767B2, “2-arylimidazo[1,2-B]pyridazine, 2-phenylimidazo[1,2-A]pyridine, and 2-phenylimidazo[1,2-A]pyrazine derivatives” (Hengrui (USA) Ltd., priority 2010, dated 2014):
Like-named read-outs stand apart in the source and are kept apart here.

Key:
[1] = system: Hedgehog pathway activation on 10T1/2/Smo#3 cells (C3H10T1/2 cells transfected with human Smoothened receptor); assay: Hedgehog pathway activation on 10T1/2/Smo#3 cells measured by ALP activity; format: cell-based
Summary of the method: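 C3H10T1/2 cells stably expressing human Smoothened were activated with hShh-conditioned medium (10-20%) or 500 nM SAG, with test compounds present. Pathway block read as inhibited ALP activity (4-methylumbelliferyl phosphate fluorescence); viability checked by CellTiter-Blue. IC50 values reported.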

[2] = system: Hedgehog pathway activation (GLi-luciferase reporter) in Shh Light II reporter cells; assay: Hedgehog pathway activation on Shh Light II reporter cells measured by luciferase activity; format: cell-based
Summary of the method: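 Shh Light II reporter cells carrying a hedgehog-responsive GLi-luciferase reporter were stimulated either with 500 nM SAG, a direct Smoothened agonist, or with conditioned media containing human Sonic Hedgehog (hShh). Test compounds were evaluated for blocking this pathway activation, quantified by luciferase activity. Cell viability was monitored in parallel with the Celltiter-Blue® assay.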

[3] = Mus musculus, C3H 10T1/2, 10T1/2/Smo#3 cells, measured by ALP activity, read-out: ALP (IC50, inhibition of Hedgehog pathway activation)
[4] = Mus musculus, Shh Light II, hShh activation, read-out: Shh (IC50, inhibition of Hedgehog pathway activation)
[5] = Mus musculus, C3H 10T1/2, 10T1/2/Smo#3 cells, hShh activation, ALP activity, read-out: 10T1/2/Smo#3 ALP activity (hShh Activation)
[6] = Mus musculus, Shh Light II, SAG activation (500 nM SAG), read-out: Shh Light II luciferase activity (SAG activation)
[7] = Mus musculus, Shh Light II, hShh activation, read-out: Shh Light II luciferase activity (hShh activation)

Compound | IC50 [1, 3] | IC50 [2, 4] | further results
COc1ncccc1-c1ccc2nc(-c3ccc(C(F)(F)F)c(NC(=O)C(C)(C)C)c3)cn2n1 [Example 175, N-(5-(6-(2-methoxypyridin-3-yl)imidazo[1,2-b]pyridazin-2-yl)-2-(trifluoromethyl)phenyl)pivalamide] | 513 nM | 799 nM | 
CN(C)S(=O)(=O)c1cc(-c2cn3nc(-c4cccnc4C(F)(F)F)ccc3n2)ccc1Cl [Example 700, 2-chloro-N,N-dimethyl-5-(6-(2-(trifluoromethyl)pyridin-3-yl)imidazo[1,2-b]pyridazin-2-yl)benzenesulfonamide] | > 10000 nM | 2500 nM | 
CCOC(=O)COc1cccc(-c2ccc3nc(-c4ccc(C)c(NC(=O)C(C)(C)C)c4)cn3n2)c1C(F)(F)F [Example 410, ethyl 2-(3-(2-(4-methyl-3-pivalamidophenyl)imidazo[1,2-b]pyridazin-6-yl)-2-(trifluoromethyl)phenoxy)acetate] | 403 nM | 121 nM | IC50 [1, 5]: 300 to 3000 nM; IC50 [2, 6]: 300 to 3000 nM; IC50 [2, 7]: < 300 nM
Cc1cccnc1-c1ccc2nc(-c3ccc(C(F)(F)F)c(NC(=O)C(C)(C)C)c3)cn2n1 [Example 152, N-(5-(6-(3-methylpyridin-2-yl)imidazo[1,2-b]pyridazin-2-yl)-2-(trifluoromethyl)phenyl)pivalamide] | 590 nM | 314 nM | 
Cc1cc(Cl)c(-c2cn3nc(N4CC[C@@H](O)C4)ccc3n2)cc1NC(=O)C(C)(C)C [Example 640, (R)—N-(4-chloro-5-(6-(3-hydroxypyrrolidin-1-yl)imidazo[1,2-b]pyridazin-2-yl)-2-methylphenyl)pivalamide] | 138 nM | 107 nM | 
CCNC1CCN(c2ccc3nc(-c4ccc(C)c(NC(=O)C(C)(C)C)c4)cn3n2)C1 (stereo not shown) [Example 474, N-(5-(6-(3-(ethylamino)pyrrolidin-1-yl)imidazo[1,2-b]pyridazin-2-yl)-2-methylphenyl)pivalamide] | 34 nM | 31 nM | 
Cc1ccc(-c2cn3nc(-c4ccc(C#N)cc4C(F)(F)F)ccc3n2)cc1NC(=O)C(C)(C)C [Example 478, N-(5-(6-(4-cyano-2-(trifluoromethyl)phenyl)imidazo[1,2-b]pyridazin-2-yl)-2-methylphenyl)pivalamide] | 327 nM | 80 nM | 
Cc1ccc(-c2cn3nc(-c4cccnc4C(F)(F)F)ccc3n2)cc1NC(=O)CCCCCCC(=O)NOC1CCCCO1 (stereo not shown) [compound 557, N1-(2-methyl-5-(6-(2-(trifluoromethyl)pyridin-3-yl)imidazo[1,2-b]pyridazin-2-yl)phenyl)-N8-((tetrahydro-2H-pyran-2-yl)oxy)octanediamide] | 1080 nM | 140 nM | 
Cc1ccc(-c2cn3nc(-c4cc(O)ccc4C(F)(F)F)ccc3n2)cc1NC(=O)C(C)(C)C [Example 399, N-(5-(6-(5-hydroxy-2-(trifluoromethyl)phenyl)imidazo[1,2-b]pyridazin-2-yl)-2-methylphenyl)pivalamide] | 175 nM | 105 nM | IC50 [1, 5]: < 300 nM; IC50 [2, 6]: < 300 nM; IC50 [2, 7]: < 300 nM
CCc1ccc(-c2cn3nc(-c4cccnc4C(F)(F)F)ccc3n2)cc1NC(=O)N1CC(F)(F)C1 [Example 695, N-(2-ethyl-5-(6-(2-(trifluoromethyl)pyridin-3-yl)imidazo[1,2-b]pyridazin-2-yl)phenyl)-3,3-difluoroazetidine-1-carboxamide] | 158 nM | 368 nM | 
CC1CCN(c2ccc3nc(-c4ccc(C(F)(F)F)c(NC(=O)C(C)(C)C)c4)cn3n2)CC1 [Example 233, N-(5-(6-(4-methylpiperidin-1-yl)imidazo[1,2-b]pyridazin-2-yl)-2-(trifluoromethyl)phenyl)pivalamide] | 339 nM | 329 nM | 
CN(CCO)c1ccc2nc(-c3ccc(C(F)(F)F)c(NC(=O)C(C)(C)C)c3)cn2n1 [Example 298, N-(5-(6-((2-hydroxyethyl)(methyl)amino)imidazo[1,2-b]pyridazin-2-yl)-2-(trifluoromethyl)phenyl)pivalamide] | 612 nM | 403 nM | 
CC(C)(C)C(=O)Nc1cc(-c2cn3nc(-c4cnccc4Cl)ccc3n2)ccc1C(F)(F)F [Example 386, N-(5-(6-(4-chloropyridin-3-yl)imidazo[1,2-b]pyridazin-2-yl)-2-(trifluoromethyl)phenyl)pivalamide] | 1710 nM | 3090 nM | 
Cc1ccc(-c2cn3nc(-c4ccc(C(N)=NO)cc4Cl)ccc3n2)cc1NC(=O)C(C)(C)C [compound 568] | 99 nM | 100 nM | 
COc1ccc(-c2ccc3nc(-c4ccc(C(F)(F)F)c(NC(=O)C(C)(C)C)c4)cn3n2)cn1 [Example 170, N-(5-(6-(6-methoxypyridin-3-yl)imidazo[1,2-b]pyridazin-2-yl)-2-(trifluoromethyl)phenyl)pivalamide] | 681 nM | 562 nM | 
CCOC(=O)CCCCCCOc1ccc(-c2ccc3nc(-c4ccc(C)c(NC(=O)C(C)(C)C)c4)cn3n2)c(C(F)(F)F)c1 [Example 413, ethyl 7-(4-(2-(4-methyl-3-pivalamidophenyl)imidazo[1,2-b]pyridazin-6-yl)-3-(trifluoromethyl)phenoxy)heptanoate] | 548 nM | 318 nM | 
Cc1c(-c2ccccc2)nc2ccc(N3CCN(Cc4ccncc4)CC3)nn12 [Example 162, 3-methyl-2-phenyl-6-(4-(pyridin-4-ylmethyl)piperazin-1-yl)imidazo[1,2-b]pyridazine] | 1110 nM | 1400 nM | 
CC(C)(C)C(=O)Nc1cc(-c2cn3nc(Cl)ccc3n2)ccc1C(F)(F)F [Example 126, N-(5-(6-chloroimidazo[1,2-b]pyridazin-2-yl)-2-(trifluoromethyl)phenyl)pivalamide] | 5570 nM | 7720 nM | 
N-(2-(2-(trifluoromethyl)pyridin-3-yl)-5-(6-(2-(trifluoromethyl)pyridin-3-yl)imidazo[1,2-b]pyridazin-2-yl)phenyl)pivalamide [Example 663] |  |  | IC50 ([1]; 10T1/2/Smo#3 cells, measured by ALP activity, read-out: ALP (IC50, inhibition of Hedgehog pathway activation)): 3540 nM; IC50 ([2]; hShh activation, read-out: Shh (IC50, inhibition of Hedgehog pathway activation)): 6230 nM
CCOC(=O)CCCOc1ccc(-c2ccc3nc(-c4ccc(C)c(NC(=O)C(C)(C)C)c4)cn3n2)c(C(F)(F)F)n1 [Example 432, ethyl 4-(5-(2-(4-methyl-3-pivalamidophenyl)imidazo[1,2-b]pyridazin-6-yl)-6-(trifluoromethyl)pyridin-2-yloxy)butanoate] | 675 nM | 121 nM | 
O=C(CC(F)(F)F)Nc1cc(-c2cn3nc(-c4cccnc4C(F)(F)F)ccc3n2)ccc1Cl [Example 675, N-(2-chloro-5-(6-(2-(trifluoromethyl)pyridin-3-yl)imidazo[1,2-b]pyridazin-2-yl)phenyl)-3,3,3-trifluoropropanamide] | 777 nM | 99 nM | 
CCOc1ccc2nc(-c3ccc(CC)c(NC(=O)C(C)(C)C)c3)cn2n1 [Example 283, N-(5-(6-ethoxyimidazo[1,2-b]pyridazin-2-yl)-2-ethylphenyl)pivalamide] | 1820 nM | 2230 nM | IC50 [1, 5]: 300 to 3000 nM; IC50 [2, 6]: 3000 to 30000 nM; IC50 [2, 7]: 300 to 3000 nM
Cc1ccc(-c2cn3nc(-c4cccnc4C(F)(F)F)ccc3n2)cc1NC(=O)C1CCCN1 (stereo not shown) [Example 645, N-(2-methyl-5-(6-(2-(trifluoromethyl)pyridin-3-yl)imidazo[1,2-b]pyridazin-2-yl)phenyl)pyrrolidine-2-carboxamide] | 155 nM | 589 nM | 
